Data: article PMC8597046, “Use of Mixture Dosing and Nonlinear Mixed Effect Modeling of Eight Environmental Contaminants in Rabbits to Improve Extrapolation Value of Toxicokinetic Data” (Environmental Health Perspectives, 2021)

Legend:
[1] = TK assay, intravenous mixture dosing: serum concentrations and noncompartmental analysis (sparse data); conditions: IV mixture dosing, NCA, n=12
Description: (§1) The experiment was carried out on thirty 10-wk old female New Zealand white rabbits (INRA 1777 line) weighing 2.37±0.14kg . […] Blood samples were taken at the designated time points post IV and oral administration: 15 min, 30 min, 1 h, 2 h, 4 h, 8 h, 12 h, 24 h, 3 d, 7 d, and 28 d from groups of 3 or 6 rabbits at each sampling time. Each rabbit was sampled 3 times and 3 rabbits were sampled at each sampling time, except at 30 min post administration, when 6 samples were collected to provide a sufficient blood volume for assaying the compounds. The doses and assay time points were selected to allow the calculation of TK parameters (Table 1) based on preliminary TK data. Residual concentrations of the compounds, and their possible evolution over time, were determined by sampling six entirely untreated rabbits during the TK study on the day of drug administrations, then 14 d and 28 d later.
(§2) The volume administered was adjusted to the animal’s body weight (BW) recorded the day before.
(§3) Intravenous administrations were performed via an indwelling catheter (22G Terumo, 0.9×25mm ) just after its insertion into an ear vein. […] For oral administrations, the mixture of all compounds ( 4mL/kg ) was deposited directly in the mouth of rabbits using a catheter (22G BD Insyte 22G, 0.9×25mm ). Prior to the study, the rabbits had been trained to gradually swallow water and then corn oil.
(§4) Blood samples were collected from the auricular artery using a 20 G needle ( 0.9×25mm ) and a dry tube. The first two blood samples were 8–10mL in volume, whereas a large volume (about 20mL ) was obtained antemortem immediately after electrical stunning (95LX rabbit stunner; Burdis), followed by exsanguination.
(§5) Serum concentration-time profiles of the different compounds were first analyzed using a noncompartmental approach (NCA) involving a sparse data option. Sparse data methodology consists of calculating TK parameters based on the mean profile of all the subjects in the dataset and is appropriate when a rich data series cannot be obtained, as in the present experiment ([FDA 1999]). The area under the concentration time curve ( AUC0−tlast ) and the area under the first moment curve ( AUMC0−tlast ) from dosing time ( t=0 ) to the time of the last measurable concentration were calculated using the linear trapezoidal rule after IV and oral dosing. The area under the serum concentration time curve from dosing time to infinity ( AUC0−inf ) was obtained by adding to AUC0−tlast the area extrapolated from the time of the last measurable concentration to infinity by dividing the last quantifiable serum concentration by the slope of the terminal phase ( λZ ), as estimated by linear regression using the best fit option of Phoenix®.
(§6) The clearance (CL) and apparent clearance (CL_F) were respectively estimated after IV and oral administrations by dividing the administered dose by the AUC0−inf calculated for each analyte.
(§7) The terminal half-life (HL) was estimated with Equation 1: (1) HL=0.69315/λZ where λz is the slope of the terminal phase.
The mean residence time (MRT) was estimated using Equation 3: (3) MRT=AUMCiv0−tlast /AUCiv0−tlast , where AUCMiv0−tlast and AUCiv0−tlast are the values of AUMC0−tlast and AUC0−tlast obtained after IV dosing.
The steady-state volume of distribution ( VSS ) was estimated using Equation 4: (4) VSS=CL×MRT, with CL and MRT as defined above.

[2] = TK assay, oral mixture dosing: serum concentrations and noncompartmental analysis (sparse data); conditions: oral mixture dosing, NCA, n=12
Description: as §1, §2, §3, §4, §5, §6, §7
The oral bioavailability (F) was estimated using Equation 2: (2) F=AUCvo0−tlast×Doseiv/AUCiv0−tlast×Dosevo, where AUCiv0−tlast and AUCvo0-tlast are the values of AUC0−tlast obtained after IV and oral dosing, respectively, and Doseiv and Dosevo are the IV and oral doses.

[3] = Estimation of loading and daily maintenance doses and NLME model simulations; set-up: species or system female rabbits; conditions: oral; for Computed maintenance dose: daily; for Computed maintenance dose / Computed loading dose: scaled to the targeted CSS of Table 6
Description: The ultimate goal of this TK investigation was to compute a dosage regimen that allowed targeted steady-state serum concentrations to be attained rapidly for a planned TK/TD trial on the reprotoxic effect of a mixture of environmental contaminants in female rabbits. […] With that in mind, the loading and the daily maintenance doses of each compound were evaluated using Equations 12 and 13, respectively.
This risk was also the reason why the NLME model was employed to simulate the time development of the amounts of compounds in the central and peripheral compartments following administration of the daily maintenance dose of each compound over the same duration.
The loading and maintenance doses computed to ensure a nominal CSS of 1 ng/mL were scaled to determine the doses to be administrated by oral route to female rabbits to maintain the targeted CSS .

[4] = rodents; ref Chang et al. 2012; cited from earlier work
[5] = Chronic exposure: daily oral mixture for 17 wk, steady-state serum concentrations; conditions: serum, mean±SD, n=16, after 17 weeks of oral mixture; MEHP after DEHP dosing
Description: The objective of this preliminary experiment was to check the ability of our approach to determine the loading and maintenance doses of the eight compounds to be administered simultaneously by oral route to reproduce in female rabbits targeted serum concentrations. The experiment was carried out on thirty-two 2-wk old female New Zealand white rabbits (INRA 1777 line) randomly allocated to a treatment and control groups of 16 rabbits weighing 309±45g and 298±62g , respectively. The treated rabbits were orally administrated a mixture of the eight compounds at a dosage corresponding to the sum of the loading and daily maintenance doses followed by daily administrations of the maintenance dose for 17 wk (see the “Estimation of the doses” section). The control group was orally administrated the vehicle for the same duration.
The volume of the maintenance dosing solution ( 1mL/kg ) was weekly adjusted to the mean BW estimated from the known pattern of growth of the INRA 1777 rabbit line. Oral dosing and antemortem blood sampling were performed as previously described.
Blood samples were left to clot for about 20–30 min at ambient temperature and centrifuged for 20 min at 3,000×g at 25°C. The separated serum was stored in glass tubes at −20°C until assayed.

[6] = Nonlinear mixed effect (NLME) compartmental modeling of merged IV and oral serum concentrations
Text: A nonlinear mixed effect (NLME) modeling approach was used to analyze simultaneously all data obtained from the different rabbits after both IV and oral administrations and to provide robust estimates of the typical TK parameters.
The primary parameters of the model, namely the volume of distribution of the central compartment (V1), the first-order rate constants ( K10 , K12 , K21 , and Kabs plus K13 , K31 for PFOA) and the bioavailability (F) and their associated precisions [standard error (SE)] were estimated by minimizing an objective function value (OFV) expressed as minus twice the log of the likelihood estimation ( −2LL ). […] Marginal likelihood was approximated by using the Laplacian engine by default and, when this engine was unable to determine the SE of the estimate, the Quasi-Random Parametric Expectation Maximization (QRPEM) was selected.
Between subject variability (BSV) of the parameters was measured using the exponential model θparameter_i=θtv_parameter×exp (ηi), where θparameter_i is the parameter estimated for the ith individual, θtv_parameter is the typical population value of the parameter, and ηi is the deviation associated with the ith individual from the corresponding value of the parameter at the population level.
The distribution of ηi was assumed to be normal with a mean of 0 and a variance ω² . BSV was reported as a coefficient of variation (CV) in the original scale CV(%)=100× exp (ω^2)−1 .
The residual variance was modeled using a combined additive and proportional error model Cobsij=Cpredij(1 + ε1ij) + ε2ij, where Cobsij and Cpredij are respectively the jth observed and predicted concentrations for the ith individual, and ε1ij and ε2ij are the multiplicative and additive residual errors.
Secondary parameters were calculated from the population primary parameters.
The clearance values (CL) were estimated using Equation 5: (5) CL=K10×V1, where V1 is the volume of the central compartment and K10 is the elimination rate constant from the central compartment.
The volume of the peripheral compartment (V2) was estimated with Equation 6: (6) V2=V1×(K12/K21), where K12 and K21 are the distribution rate constants between the central and the peripheral compartments.
The clearance of distribution (Q) was estimated using Equation 7: (7) Q=K12×V1, with […] and K12 as defined above.
The volume of distribution associated with the terminal phase was estimated with Equation 10: (10) VZ=CL/λZ, with λZ as defined above.
The AUC was computed as a secondary parameter using Equation 11: (11) AUC=Dose/CL.
The terminal half-life was estimated with Equation 1, as previously described.

With `O=C(O)[C@H]1O[C@@H](Oc2ccc(S(=O)(=O)c3ccc(O)cc3)cc2)[C@H](O)[C@@H](O)[C@@H]1O` [BPSG, bisphenol S glucuronide] the MRT [1] was 3.16 h, the “AUC0−inf” value ([1]; serum) was 5.18 µM·h and the Cmax ([1]; serum, doses in Table 2 r3, BPSG after BPS dosing) was 5.78 µM. It also gave a half-life ([1]; terminal) of 3.80 h, an MRT ([2]; MEHP after oral DEHP) of 7.66 h and a Tmax ([2]; MEHP after oral DEHP) of 0.27 h. The “AUC0−inf” value ([2]; serum, MEHP after oral DEHP) was 15.8 µM·h, the Cmax ([2]; serum, doses in Table 3 r3, MEHP measured after oral DEHP, BPSG after BPS) was 6.91 µM and the half-life ([2]; terminal, MEHP after oral DEHP) was 4.23 h.
Compound `CCCCC(CC)COC(=O)c1ccccc1C(=O)OCC(CC)CCCC` (stereo not shown) [DEHP, di(2-ethylhexyl)phthalate] has a Computed maintenance dose [3] of 0.78 mg/kg, a Computed loading dose [3] of 0.264 mg/kg and a Daily maintenance dose ([3]; to maintain serum concentration of 1 ng/mL, daily CL×Css/F, DEHP dose for MEHP in serum) of 0.013 mg/kg. The Loading dose ([3]; to rapidly attain serum concentration of 1 ng/mL, Vss×Css/F, DEHP dose for MEHP in serum) was 0.0044 mg/kg.
For `O=S(=O)(O)C(F)(F)C(F)(F)C(F)(F)C(F)(F)C(F)(F)C(F)(F)C(F)(F)C(F)(F)F` [PFOS, perfluorooctane sulfonate], the Computed maintenance dose [3] is listed as 0.0013 mg/kg, the Computed loading dose [3] is listed as 0.06 mg/kg and the Intestinal absorption [4] is listed as 117%. The “Observed CSS” value [5] was 154 ± 25 ng/mL, the “Oral bioavailability (F)” value ([6]; NLME model) was 100% and the Clearance ([6]; population secondary parameter, mean) was “lower than 0.01 L/kg/h”.
